Like-named read-outs stand apart in the source and are kept apart here.
Tests used:
[1] = tested on: Aureobasidium pullulans (APUL); experiment: Minimum inhibitory concentration (MIC), broth two-fold serial dilution test; format: cell-based; conditions: Aureobasidium pullulans, IIIB, trypticase soy broth (complex media); Table IIIb; read-out: MIC (F) APUL
[2] = tested on: MIXED COOLING TOWER ALGAE; experiment: MIC test against mixed cooling tower algae; format: cell-based, green algae and blue-green bacteria; conditions: Table VIII
Experimental: The algae culture contains green algae and blue-green bacteria, and is obtained from a cooling tower in Spring House, Pennsylvania. The algae culture is grown in Allen's medium on a rotary shaker under flourescent room lighting. This culture is further diluted with Allen's medium and then added to the test vessel.

[3] = tested on: Piricularia oryzae (PIR); experiment: microbe, parasite or virus in culture; format: cell-based
[4] = tested on: PSH; experiment: In-vitro plant fungicide test; format: cell-based; conditions: Table IVb, read-out: % Control at (ppm) indicated PSH
[5] = tested on: Septoria nodorum (SEP); experiment: In-vitro plant fungicide test; format: cell-based; conditions: Parastagonospora nodorum
[6] = tested on: 8 FUNGI; experiment: Microbicides secondary test against 8 fungi on Mycophile Agar at pH 5.0 (Table VI); format: cell-based; set-up: key: 1= no growth; 0= growth of the indicated fungi at dose indicated in ppm; conditions: for ANIG growth: Aspergillus niger; for APUL growth: Aureobasidium pullulans; for CGLO growth: Chaetomium globosum; for CRES growth: Cladosporium resinae; for GTRA growth: Gloeophyllum trabeum; for PFUN growth: Penicillium funiculosum; for RRUB growth: Rhodotorula rubra; for SSER growth: Sacharomyces cerevisiae
Excerpt: The results of the minimum inhibitory concentration (MIC) tests of compounds of this invention are shown in Tables IIIa IIIb, IIIc, V, VI, VII, and VIII against the microorganisms shown in Table IX.

[7] = tested on: Pseudomonas fluorescens (PSFL); experiment: Minimum inhibitory concentration (MIC), broth two-fold serial dilution test; conditions: Pseudomonas fluorescens, IIIB, read-out: MIC (G-) PSFL, trypticase soy broth (complex media); Table IIIb
Excerpt: When the test is ready to be done, each vessel in the dilution series, except the first vessel, contains an equal volume of compound free broth. The first vessel contains twice the volume of broth with the starting concentration of test compound. One half of the broth from the first vessel is transferred to the second vessel. After being mixed, one half the resulting volume is removed from the second vessel and transferred to the third vessel. The entire cycle is repeated sufficiently to give a series of concentrations amounting to 500, 250, 125, 63, 31, 16, 8, and 4 ppm (or 100, 50, 25, 12.5, 6.2, 3.1, 1.6, and 0.8), respectively.
Each vessel is then inoculated with a cell suspension of the appropriate test organism. Bacteria are grown in broth, fungi on agar slants for a time and at a temperature appropriate to the species being tested, and algae are a mixture of green algae and blue-green bacteria grown in a nutrient media. At the end of the growth period, in the case of bacteria, the broth is vortexed to disperse the cells.
The vessels are then incubated at the appropriate temperature. After the incubation, the vessels are examined for growth/no growth.

CC(=O)NCC(=O)OCC#CI [Compound 28, N-acetylglycine iodopropargyl ester]
100%: inhibition of growth at 6 ppm ([3]; 6 ppm, read-out: % Control at (ppm) indicated PIR) | inhibition of growth at 25 ppm ([3]; 25 ppm, read-out: % Control at (ppm) indicated PIR) | inhibition of growth at 25 ppm ([3]; read-out: % Control at 25 ppm PIR) | inhibition of growth at 6 ppm ([4]; 6 ppm) | inhibition of growth at 25 ppm ([4]; 25 ppm) | inhibition of growth at 25 ppm ([5]; Table IVa, read-out: % Control at 25 ppm SEP) | inhibition of growth at 25 ppm ([5]; Table IVb, read-out: % Control at (ppm) indicated SEP)
0: ANIG growth ([6]; 0.2 PPM) | ANIG growth ([6]; 1.0 PPM) | ANIG growth ([6]; 2.5 PPM) | APUL growth ([6]; 0.2 PPM) | APUL growth ([6]; 1.0 PPM) | APUL growth ([6]; 2.5 PPM) | CGLO growth ([6]; 0.2 PPM) | CGLO growth ([6]; 1.0 PPM) | CGLO growth ([6]; 2.5 PPM) | CRES growth ([6]; 0.2 PPM) | CRES growth ([6]; 1.0 PPM) | CRES growth ([6]; 2.5 PPM) | GTRA growth ([6]; 0.2 PPM) | GTRA growth ([6]; 1.0 PPM) | GTRA growth ([6]; 2.5 PPM) | PFUN growth ([6]; 0.2 PPM) | PFUN growth ([6]; 1.0 PPM) | PFUN growth ([6]; 2.5 PPM) | RRUB growth ([6]; 0.2 PPM) | RRUB growth ([6]; 1.0 PPM) | RRUB growth ([6]; 2.5 PPM) | SSER growth ([6]; 0.2 PPM) | SSER growth ([6]; 1.0 PPM) | SSER growth ([6]; 2.5 PPM)
4 µg/mL: MIC [1]
63 µg/mL: MIC [7]
0%: inhibition of growth at 1.5 ppm ([3]; 1.5 ppm, read-out: % Control at (ppm) indicated PIR) | inhibition of growth at 0.2 ppm ([3]; .2 ppm, read-out: % Control at (ppm) indicated PIR) | inhibition of growth at 0.4 ppm ([3]; .4 ppm, read-out: % Control at (ppm) indicated PIR) | inhibition of growth at 0.8 ppm ([3]; .8 ppm, read-out: % Control at (ppm) indicated PIR) | inhibition of growth at 0.2 ppm ([4]; .2 ppm) | inhibition of growth at 0.4 ppm ([4]; .4 ppm) | inhibition of growth at 0.8 ppm ([4]; .8 ppm) | inhibition of growth at 1.5 ppm ([5]; 1.5 ppm, Table IVb, read-out: % Control at (ppm) indicated SEP) | inhibition of growth at 6 ppm ([5]; 6 ppm, Table IVb, read-out: % Control at (ppm) indicated SEP) | inhibition of growth at 0.2 ppm ([5]; .2 ppm, Table IVb, read-out: % Control at (ppm) indicated SEP) | inhibition of growth at 0.4 ppm ([5]; .4 ppm, Table IVb, read-out: % Control at (ppm) indicated SEP) | inhibition of growth at 0.8 ppm ([5]; .8 ppm, Table IVb, read-out: % Control at (ppm) indicated SEP)
1: ANIG growth ([6]; 25 PPM) | APUL growth ([6]; 25 PPM) | CGLO growth ([6]; 25 PPM) | CRES growth ([6]; 25 PPM) | GTRA growth ([6]; 25 PPM) | PFUN growth ([6]; 25 PPM) | RRUB growth ([6]; 25 PPM) | SSER growth ([6]; 25 PPM)
6.2 µg/mL: MIC [2]
95%: inhibition of growth at 1.5 ppm ([4]; 1.5 ppm)

— EP0414533A1, “Use of iodopropargyl esters of alpha-amino acid derivatives as antimicrobial agents” (ROHM AND HAAS COMPANY, priority 1989, dated 1991)
